Experiment [1] has as its system lysosome and ubiquitin-proteasome pathways. Nature of the experiment: Lysosome/proteasome inhibitor rescue of anti-sEcad mAb-induced apoptosis and HER1-4 expression. The experiment is classed as cell-based. Here is the method: Cellular apoptosis was quantitatively determined using the Cell Death Apoptosis Detection ELISA Plus kit (Boehringer Mannheim), which is based on the detection of DNA-histone complexes in the form of mono- and oligo-nucleosomes, according to the manufacturer's instructions. Briefly, cells were treated in the presence or absence of various concentrations of DECMA-1 or rat IgG1 for 24 to 48 h. Cells were harvested by trypsinization, counted and lysates were subjected to the ELISA. In vitro and in vivo apoptosis was further analyzed by in situ detection of fragmented DNA, using the DeadEnd Fluorometric TUNEL System (Promega), the ApopTag Peroxidase In situ Apoptosis Detection Kit (Millipore) and the human Apoptosis Array Kit (ARY009, R & D), according to the manufacturer's instructions. The ApopTag kit was performed on deparaffinized 5 μm-thick sections treated with proteinase K (20 μg/ml) at RT. For cell counting, the cells were trypsinized and counted on a haemocytometer. For tumor BrdU analyses, tissues were stained using an anti-BrdU (ab2284, abcam) antibody, as previously described (27). The proliferation of cells was monitored by a cell proliferation ELISA 5-bromo-2′-deoxyuridine (BrdU) (colorimetric) kit (Roche, Stockholm, Sweden), according to the manufacturers protocol.
Human MCF-7 and BT474 parental cells were purchased from the American Type Culture Collection (ATCC), and cultured according to ATCC recommendations. BT474-Herceptin resistant cells were a kind gift of Dr. Kute (Wake Forest University, Winston-Salem, N.C.) and grown in 10% FBS RPMI-1640 medium (ATCC). Anti-sEcad ectodomain-specific antibodies include DECMA-1 (Sigma), HECD-1 (Calbiochem), SHE78-7 (Calbiochem) and H108 (Santa Cruz Biotechnology). The IAP antibody sampler kit was purchased from Cell Signaling. ALLN proteasome and chloroquine lysosome inhibitors were obtained from Sigma.

Experiment [2] relates to HER1, HER2, IGF-1R. Nature of the experiment: Western blot of receptor phosphorylation in skin and oropharyngeal SCC cell lines. The experiment is classed as cell-based. Particulars: PAM212 cells.
Description: (§2) After brief sonication, lysates were cleared by centrifugation at 4° C. […] After transfer to nitrocellulose membrane and blocking with 1% BSA, samples were probed with primary antibodies. Western blot images were captured using HP Scanjet G4050 and analyzed relative to G3PDH or actin using NIH Scion Image.
(§3) Antibodies against total HER1 and HER 4 and phosphorylated HER1-4, pPI3K, pAkt, pmTOR, p4E-BP1, pRaptor and pp70S6K obtained from Cell Signaling Technologies. Monoclonal antibodies to HER3 and HER4 were obtained from Thermo Scientific. Polyclonal antibody to the extracellular domain of E-cadherin and monoclonal antibody to α-actin were obtained from Santa Cruz Biotechnology. Monoclonal antibody to the extracellular domain of E-cadherin (DECMA-1) and to His Tag were obtained from Sigma and Abcam, respectively. Monoclonal antibody to G3PDH, ubiquitin and rat IgG1 were obtained from Ambion, Zymed and Southern Biotechnology, respectively.
In experiment [3] the test system is MCF-7, SKBR3 and MDA-MB-231 breast cancer cell lines. Nature of the experiment: BrdU proliferation in breast cancer cell lines. It counts as cell-based, human. Particulars: for basal and sEcad-induced BrdU incorporation: breast cancer cells, Canertinib 1 μM, Lapatinib 5 μM, Gefitinib 5 μM. As for the experimental part:
(§1) For BrdU staining, cells were incubated with 10 μM BrdU for 2 h prior to fixation and processed for immunofluorescence microscopy as previously described (Brouxhon et al., Cancer Res. 67:7654-64, 2007). For BrdU analyses, cells were counted from 6 low-power fields (×100) per section. BrdU incorporation was also analyzed by a cell proliferation ELISA 5-bromo-2′-deoxyuridine (BrdU) (colorimetric) kit (Roche, Stockholm, Sweden), according to the manufacturer's instructions. Migration and invasion of cells were measured using 8.0 μm pore BD BioCoat Control Insert 24-well plates (no. 354578) and Matrigel Invasion Chamber 24-well Plates (no. 354480), respectively (BD Bioscience). Cells were collected, washed, and 2×10^5 cells were plated in 0.4% FBS medium in the top chamber, with 0-20 μg/mL of rhEcad/Fc in the bottom chamber. After 22 h, cells on the top were removed using a cotton swab. Migrated or invaded cells on the lower surface were fixed with methanol, stained with 0.5% crystal violet, examined by bright field microscopy and photographed. Migration or invasion was quantitated by counting migrated or invaded cells in at least ten random high-power fields per insert and expressed as averages. Results are presented as fold change of the number of migrated/invaded cells to the untreated controls in triplicate experiments.
(Incorporation of labelled thymidine or its analogues reports DNA synthesis.)

Experiment [4] deals with oropharyngeal FADU and skin SCC (PAM212, CC4A, SCC13 and SCC12b) cell lines. The experiment in a line: Proliferation in oropharyngeal and skin SCC cell lines. The experiment is classed as cell-based. Particulars: PAM212 skin SCC cells; HER inhibitors. As for the experimental part:
as §1

Experiment [5] has as its system skin (PAM212, CC4A, SCC12b, SCC13) and oropharyngeal (FADU) cells. The experiment in a line: Transwell migration of SCC cells. The experiment is classed as cell-based. Particulars: PAM212 skin SCC cells; HER inhibitors. Here is the method:
as §1

The subject of experiment [6] is skin (SCC12b, SCC13, PAM212 and CC4A) and the head & neck FADU cell line. The experiment in a line: Matrigel invasion of SCC cells. It counts as cell-based. The settings on record: for sEcad-induced invasion: PAM212 skin SCC cells, HER inhibitors.
In experiment [7] the test system is MEK1/2, ERK1/2, PI3K, Akt, mTOR, p70S6K, 4EBP1. The experiment in a line: Western blot of downstream MAPK-PI3K/Akt/mTOR signaling in SCC cell lines. Particulars: PAM212 cells. The experiment is classed as cell-based. On the technique in general: In western blotting, separated proteins are transferred to a membrane and probed.
Description: as §2, §3
The subject of experiment [8] is MDA-MB-231 and MCF-7 breast cancer cells. Nature of the experiment: Matrigel invasion of breast cancer cells. The experiment is classed as cell-based, human. Here is the method: as §1, with “After 22 h, cells on the top were removed using a cotton swab.” left out
Experiment [9] deals with breast (MCF-7, SKBR3) cells. Nature of the experiment: Transwell migration of breast cancer cells. It counts as cell-based, human. Here is the method: as §1, with “After 22 h, cells on the top were removed using a cotton swab.” left out
Experiment [10] relates to HER1-4. The experiment in a line: Western blot of HER phosphorylation in breast cancer cells. The experiment is classed as cell-based, human. Particulars: MCF-7 cells, equimolar concentrations, compared to sEcad alone. From the text:
The association of sEcad with these RTK was also confirmed by in vitro studies. Specifically, in cell culture systems, extracts from sEcad (rhEcad/Fc:His tagged) treated E-cadherin positive MCF-7 and E-cadherin negative SKBR3 and MDA-MB-231 breast cancer cells were immunoprecipitated with HER1-4-specific antibodies and analyzed by western blotting with a His-tagged-specific antibody. Here, we detected HER1-4-sEcad, HER1-2-sEcad and HER1-sEcad interactions in MCF, SKBR3 and MDA-MB-231 breast cancer cells, respectively. […] Because ligand binding to the HER family of receptors induces the formation of homo- and heterodimers, resulting in phosphorylation on specific tyrosine residues within the cytoplasmic domain (Yarden and Siliwkowski, Nature Reviews. 2:127-137, 2001), we next used western blot assays to examine whether sEcad promotes HER phosphorylation and downstream signaling.
Immunoprecipitation assays were carried out by harvesting tissues or cells with immunoprecipitation lysis buffer (20 mM Tris-HCl, pH 7.5; 137 mM NaCl; 100 mM NaF; 10% glycerol (vol/vol); 1% (vol/vol) Nonidet P-40; 1 mM PMSF and protease inhibitor cocktail (Sigma)). After brief sonication, lysates were cleared by centrifugation at 4° C. […] Western blot images were captured using HP Scanjet G4050 and analyzed relative to G3PDH or actin using NIH Scion Image. […]

Setting [11] is: MCF-7 cells, 24 h, equimolar concentrations.

Where a SMILES comes first, the peptide text is derived from it. [ ]: non-standard residue; d: D form. Nle = CCCC[C@H](N)C(=O)O

On to `CCCC[C@@H](C=O)NC(=O)[C@H](CC(C)C)NC(=O)[C@H](CC(C)C)NC(C)=O` [ALLN] (Ac-Leu-Leu-[Nle]-aldehyde), for which, in [1], the “HER1-4 expression in anti-sEcad mAb treated cells in presence of inhibitor” value was “rescue of HER1-4 expression” and the “anti-sEcad mAb-induced apoptosis in presence of inhibitor” value is recorded as “inhibited”.

Take `C=CC(=O)Nc1cc2c(Nc3ccc(F)c(Cl)c3)ncnc2cc1OCCCN1CCOCC1` [Canertinib]: in experiment [2], the “sEcad-induced HER1 phosphorylation” value is reported as “completely abrogated” and the “sEcad-induced HER2 phosphorylation (pHER2)” value was “completely abrogated”. The phospho-IGF-1R levels entry in [2] (in the presence of sEcad, compared to corresponding controls) is “did not alter”. Also, the “basal and sEcad-induced BrdU incorporation” value in experiment [3] is “significantly reduced both basal and sEcad-induced BrdU incorporation”. Besides, the sEcad-induced proliferation entry in experiment [4] is “effectively inhibited sEcad-induced proliferation, migration and invasion”. Besides, the sEcad-induced migration entry in experiment [5] was “effectively inhibited sEcad-induced proliferation, migration and invasion”. Also, the sEcad-induced invasion result in experiment [6] is “effectively inhibited sEcad-induced proliferation, migration and invasion”.

As for `CCN(CC)CCCC(C)Nc1ccnc2cc(Cl)ccc12` (stereo not shown) [Chloroquine], in [1], the “HER1-4 expression in anti-sEcad mAb treated cells in presence of inhibitor” value is reported as “rescued HER1-4 membrane expression” and the “anti-sEcad mAb-induced apoptosis in presence of inhibitor” value is on record as “prevented anti-sEcad mAb-induced apoptosis at low doses”.

With `CNC(=O)[C@H](Cc1c[nH]c2ccccc12)NC(=O)[C@@H](CC(=O)NO)CC(C)C` [GM6001, Ilomastat], the sEcad-stimulated invasion result in experiment [6] (PAM212 cells treated with 20 μg/mL rmEcad/Fc) is listed as “completely blocked”.

Regarding `COc1cc2ncnc(Nc3ccc(F)c(Cl)c3)c2cc1OCCCN1CCOCC1` [Gefitinib], in experiment [7], the “sEcad-induced phosphorylation of 4EBP1” value is on record as “only minimal effects”; the “sEcad-induced phosphorylation of ERK1/2, Akt and p70S6K” value is reported as “decreased”; the “sEcad-induced phosphorylation of PI3K” value is “decreased”. Besides, the “basal and sEcad-induced BrdU incorporation” value in [3] is “significantly reduced both basal and sEcad-induced BrdU incorporation”. Besides, the sEcad-induced proliferation result in experiment [4] is “effectively inhibited sEcad-induced proliferation, migration and invasion”. Also, in experiment [5], the sEcad-induced migration result is “effectively inhibited sEcad-induced proliferation, migration and invasion”. Besides, the “basal and sEcad-induced invasion” value in [8] (MDA-MB-231 cell line, compared to untreated controls) is “significantly reduced”. In addition, the sEcad-induced invasion entry in experiment [6] was “effectively inhibited sEcad-induced proliferation, migration and invasion”.

On to `FC(F)(F)c1ccc(/C=C/c2nc(COc3ccc(CCCCn4ccnn4)cc3)co2)cc1` [Mubritinib], for which, in experiment [9] (breast cancer cells (MCF-7)), the “basal and rhEcad/Fc-mediated migration” value is recorded as “only blocked sECad-induced MCF-7 migration”.

For “rhEGF: Recombinant human EGF (Enzo Life Sciences) (NSDSECPLSHDGYCLHDGVCMYIEALDKYACNCVVGYIGERCQYRDLKWWELR)”, the “HER1 and ERK1/2 phosphorylation” value in [10] is “more potent effects on HER1 and ERK1/2 phosphorylation”. In addition, the proliferation entry in experiment [3] (setting [11]) is “significantly increased proliferation, migration and invasion”. Moreover, in [9] (setting [11]), the migration entry is “significantly increased proliferation, migration and invasion”. The invasion entry in experiment [8] (setting [11]) was “significantly increased proliferation, migration and invasion”.

The values above are taken from patent US20190008957A1, “COMBINATION THERAPIES INCLUDING INHIBITORS OF THE EXTRACELLULAR DOMAIN OF E-CADHERIN” (The Research Foundation for The State of New York, priority 2012, published 2019).
